Data published in patent publication US11180657B2, “Polysulfonated fluorescence dyes” (ATTO-TEC GmbH, priority 2017, dated 2021).
Marks after values point to notes of the source that are not given here.

Experiments:
Type in all cases: physicochemical
[1] = Absorption maximum of the dye
Text: (§1) Examples of the compounds according to the invention are listed in Tables 2-6, where the structures as well as the absorption and fluorescence maxima are indicated. The spectra of selected compounds are shown FIGS. 5-18.

streptavidin = target: T1, streptavidin (Streptomyces avidinii, UniProt P22629); assay: Fluorescence quantum yield of the dye after coupling to streptavidin, relative to the uncoupled dye; conditions: streptavidin conjugate
T1 construct: purchased IBA
Text: The average number of dye molecules per biomolecule is expressed by the “degree of labeling” (DOL). […] Since the dye also absorbs in UV, the (total) absorption measured there must still be corrected with the absorption of the dye at this wavelength in order to obtain the actual biomolecule absorption. For this purpose, with commercial dyes, so-called CF values (correction factor values) are given, which describe the ratio of absorptions of the dye at the longwave maximum and at 260 nm or 280 nm.
From the thus obtained (individual) absorptions of dye and biomolecule in the conjugate, taking into consideration the two extinction coefficients, the quotient is formed, which directly indicates the molecular concentration ratio and thus the mean number of dye molecules per biomolecule (“degree of labeling,” DOL).
The compounds listed in Table 1 belong to the class of rhodamines with the same chromophore system. In an aqueous solution at room temperature they all have a comparably high fluorescence quantum yield of about 90%. […] Thus with established marking procedures, a much better detection reliability is achieved.
2 mg of streptavidin (IBA, content approx. 75%) are dissolved under cautious swirling in a glass vial with 1 ml of PBS buffer (pH 7.4) and 50 μl of a 0.2 M sodium hydrogen carbonate solution, which is set to a pH of 9 with sodium hydroxide. The clear solution has a pH-value of 8.3.
40.5 μl of a solution of 170 μg of compound 7 in 50 μl of dry DMSO are added; this corresponds to a dye-streptavidin ratio of 4:1.
The reaction solution is kept for two hours at room temperature and then kept overnight in the refrigerator at 4° C.
Purification is performed in the usual manner over superfine Sephadex G25 (column length 40 cm, diameter 2.5 cm) with PBS buffer as the eluent. The first colored zone contains the streptavidin conjugate.
The DOL can be calculated from the absorption spectrum of the conjugate fraction by the known procedure.

[2] = Fluorescence maximum of the dye; conditions: solvent PBS pH 7.4
Text: as §1

[3] = Lactone or pseudobase formation in aqueous weakly alkaline solution; conditions: aqueous weakly alkaline solutions; reversible
Text: Normally such lactones are adequately stabilized only in aprotic solvents such as acetone or chloroform. In protic solvents the carboxyl group is deprotonated and a slightly more short-wave absorbing and fluorescent zwitterion is formed. In the exemplary compounds, however, colorless compounds are formed due to the strong electron attraction of the indicated substituents, due to internal ester formation and the associated interruption of the conjugated system. If the carboxyl group is not free but is present as an ester or tertiary amide, so-called pseudobases are formed, through nucleophilic attack (hydroxide ions etc.) at the central carbon atom, which is stronger positivized by the electron-attracting substituents, which pseudobases are likewise colorless due to the interruption of the conjugated system. Both reactions are reversible; by changing the pH value, the dielectric constant (“polarity”) and/or the capability of hydrogen bridge bonding (“proticity”), the dye can be restored. Therefore such compounds can in principle be used as probes for the properties of their direct environment: Depending on the milieu, the molecules are present in colorless or colored form. Associated therewith is also a sort of fluorogenicity, because the longwave fluorescence appears only in the dye form.

T1 sequence (P22629 38-163 limits assumed): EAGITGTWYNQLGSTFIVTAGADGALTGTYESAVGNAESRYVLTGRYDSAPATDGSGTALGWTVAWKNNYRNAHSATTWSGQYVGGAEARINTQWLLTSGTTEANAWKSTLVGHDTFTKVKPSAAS

CN(CCCC(=O)O)C(=O)c1ccccc1-c1c2cc(S(=O)(=O)O)/c(=N/Cc3ccc(S(=O)(=O)O)cc3S(=O)(=O)O)cc-2oc2cc(NCc3ccc(S(=O)(=O)O)cc3S(=O)(=O)O)c(S(=O)(=O)O)cc12 [Compound 6]
λabs ([1]; solvent water/acetonitrile 1:1): 534^c nm | Fluorescence quantum yield of the dye following coupling to streptavidin in comparison with the uncoupled dye (streptavidin; DOL 2.5, PBS-buffer 25° C.): 42% | Fluorescence quantum yield of the dye following coupling to streptavidin in comparison with the uncoupled dye (streptavidin; DOL 5.5, PBS-buffer 25° C.): 37% | λfl [2]: 559^b nm | formation of colorless lactone or pseudobase [3]: easily form a lactone or pseudobase

CN(CCCC(=O)NCCCCCC(=O)O)C(=O)c1ccccc1-c1c2cc(S(=O)(=O)O)/c(=N/Cc3ccc(S(=O)(=O)O)cc3S(=O)(=O)O)cc-2oc2cc(NCc3ccc(S(=O)(=O)O)cc3S(=O)(=O)O)c(S(=O)(=O)O)cc12 [Compound 12]
λabs ([1]; solvent water/acetonitrile 1:1): 536^c nm | Fluorescence quantum yield of the dye following coupling to streptavidin in comparison with the uncoupled dye (streptavidin; DOL 3.0, PBS-buffer 25° C.): 27% | λfl [2]: 555^b nm | formation of colorless lactone or pseudobase [3]: easily form a lactone or pseudobase

CN(CCCC(=O)O)C(=O)c1ccccc1-c1c2cc(S(=O)(=O)O)/c(=N/CCc3ccc(S(=O)(=O)O)cc3)cc-2oc2cc(NCCc3ccc(S(=O)(=O)O)cc3)c(S(=O)(=O)O)cc12 [Compound 19]
λabs ([1]; solvent water/acetonitrile 1:1): 537^c nm | Fluorescence quantum yield of the dye following coupling to streptavidin in comparison with the uncoupled dye (streptavidin; DOL 5.6, PBS-buffer 25° C.): 10% | λfl [2]: 560^b nm | formation of colorless lactone or pseudobase [3]: easily form a lactone or pseudobase

CN(CCCC(=O)O)C(=O)c1ccccc1-c1c2cc(S(=O)(=O)O)/c(=N/CCc3ccc(S(=O)(=O)O)cc3S(=O)(=O)O)cc-2oc2cc(NCCc3ccc(S(=O)(=O)O)cc3S(=O)(=O)O)c(S(=O)(=O)O)cc12 [Compound 25]
λabs ([1]; solvent PBS pH 7.4): 539^b nm | Fluorescence quantum yield of the dye following coupling to streptavidin in comparison with the uncoupled dye (streptavidin; DOL 2.8, PBS-buffer 25° C.): 45% | Fluorescence quantum yield of the dye following coupling to streptavidin in comparison with the uncoupled dye (streptavidin; DOL 6.7, PBS-buffer 25° C.): 35% | λfl [2]: 560^b nm | formation of colorless lactone or pseudobase [3]: easily form a lactone or pseudobase

CN(CCCC(=O)O)C(=O)c1ccccc1-c1c2cc/c(=N/CCc3ccc(S(=O)(=O)O)cc3)c(S(=O)(=O)O)c-2oc2c(S(=O)(=O)O)c(NCCc3ccc(S(=O)(=O)O)cc3)ccc12 [Compound 26]
λabs ([1]; solvent water/acetonitrile 1:1): 538^c nm | Fluorescence quantum yield of the dye following coupling to streptavidin in comparison with the uncoupled dye (streptavidin; DOL 7.0, PBS-buffer 25° C.): 8% | λfl [2]: 558^b nm
